PMC7980952 (Clinical cancer research : an official journal of the …, 2019)
Entries after “also recorded” stand apart in the source; their conditions may differ. Where two headings read alike, the source gives them in different places.

Experiments:
melanoma = settings: ref Long et al. 2018, cited from earlier work
IDO = settings: ref Siu et al. 2017; cited from earlier work
preclinical tumor models = settings: combination with anti-PD-L1 vs single agents; ref Spahn et al. 2015; cited from earlier work
[1] = in vivo
[2] = Navoximod plasma pharmacokinetics; format: in vivo, human; settings: for PK profile (linearity, dose proportionality): 50–1000 mg BID oral, with atezolizumab; for Tmax: human, plasma, po, 50–1000 mg BID
IDO1 = assay: Plasma Kyn as peripheral biomarker of IDO1 activity; format: in vivo, human
[3] = test system: locally advanced or metastatic solid tumors; assay: Tumor response by investigators per RECIST v1.1; format: in vivo, human; settings: with atezolizumab; for ORR in IDO1 0 patients / ORR in PDL1 0 patients / ORR in PDL1 IHC 1/2/3 patients / ORR in IDO1 IHC 1/2/3 patients / ORR in all patients: expansion
solid tumors = settings: ref Nayak et al. 2018, cited from earlier work
[4] = Phase Ib safety assessments: adverse events; settings: in combination with atezolizumab
[5] = Phase 1a, 22 patients with solid tumors

## NS(=O)(=O)NCCNc1nonc1C(=NO)Nc1ccc(F)c(Br)c1 [epacadostat]
melanoma; epacadostat in combination with pembrolizumab
  mPFS: 4.7 mo.

## C[C@@H](C(=O)Nc1ccc(Cl)cc1)C1CCC(c2ccnc3ccc(F)cc23)CC1 (some centres unmarked) [BMS-986205]
IDO
  In vitro potency compared with epacadostat and navoximod: greater in vitro potency

## O[C@H](C[C@H]1c2c(F)cccc2-c2cncn21)[C@H]1CC[C@H](O)CC1 [Navoximod]
Preclinical tumor models
  Activation of intratumoral CD8+ T cells and tumor growth inhibition: more effectively activates intratumoral CD8+ T cells and inhibits tumor growth compared to either single agent alone
[1]; human
  Chromaturia, treatment-related AE: 20%
  Discontinuations due to treatment related AEs: 9%
  Fatigue, treatment-related AE: 22%
  Grade ≥ 3 treatment-related AEs: 22%
  Grade ≥ 3 treatment-related rash: 9%
  Patients who discontinued treatment due to rash: 4%
  Pink colored urine (chromaturia): up to 20%
  Rash overall: around 20%
  Rash, treatment-related AE: 22%
  Treatment related serious AEs: 10%
[1]
  Relationship between dose and incidence or severity of AEs: no clear relationship
  Tolerability of the combination: generally well-tolerated
[2]
  PK profile (linearity, dose proportionality): linear PK profile; also recorded: dose-proportional and linear PK
[2]; listed as navoximod
  PK profile (linearity, dose proportionality): dose-proportional and linear PK profile
[2]; Tmax range
  Tmax: 0.25 to 4 h
[2]; median Tmax
  Tmax: ~1 h
[2]; in vivo
  PK in combination with atezolizumab compared with single agent: consistent with single-agent PK observations
IDO1; patients receiving at least 200 mg navoximod
  Mean change in plasma Kyn from the pre-dose baseline: decreased at all post-dose timepoints beyond 1 hour
IDO1; relative to Cycle 1 Day 1 pre-dose levels
  Change in plasma Kyn: generally decreased with increasing doses
[3]; dose escalation, all patients (n=66)
  Partial response (PR), best overall response: 9%
[3]; All Patients, n=19
  ORR in IDO1 0 patients: 0 (0%) Responders (%)
[3]; All Patients, n=27
  ORR in PDL1 0 patients: 0 (0%) Responders (%)
[3]; All Patients, n=60
  ORR in PDL1 IHC 1/2/3 patients: 9 (15%) Responders (%)
[3]; All Patients, n=68
  ORR in IDO1 IHC 1/2/3 patients: 9 (13%) Responders (%)
[3]; All Patients, n=91
  ORR in all patients: 10 (11%) Responders (%)
[3]; Biopsy A (CIT naïve), n=3
  ORR in IDO1 0 patients: 0 (0%) Responders (%)
[3]; Biopsy A (CIT naïve), n=5
  ORR in PDL1 0 patients: 0 (0%) Responders (%)
[3]; Biopsy A (CIT naïve), n=6
  ORR in PDL1 IHC 1/2/3 patients: 0 (0%) Responders (%)
[3]; Biopsy A (CIT naïve), n=8
  ORR in IDO1 IHC 1/2/3 patients: 0 (0%) Responders (%)
[3]; Biopsy A (CIT naïve), n=11
  ORR in all patients: 0 (0%) Responders (%)
[3]; Biopsy B (CIT naïve), n=4
  ORR in IDO1 0 patients: 0 (0%) Responders (%)
  ORR in PDL1 0 patients: 0 (0%) Responders (%)
[3]; Biopsy B (CIT naïve), n=8
  ORR in IDO1 IHC 1/2/3 patients: 1 (12%) Responders (%)
  ORR in PDL1 IHC 1/2/3 patients: 1 (12%) Responders (%)
[3]; Biopsy B (CIT naïve), n=12
  ORR in all patients: 1 (8%) Responders (%)
[3]; NSCLC (CIT naïve), n=8
  ORR in IDO1 0 patients: 0 (0%) Responders (%)
[3]; NSCLC (CIT naïve), n=11
  ORR in PDL1 0 patients: 0 (0%) Responders (%)
[3]; NSCLC (CIT naïve), n=14
  ORR in PDL1 IHC 1/2/3 patients: 2 (14%) Responders (%)
[3]; NSCLC (CIT naïve), n=17
  ORR in IDO1 IHC 1/2/3 patients: 2 (12%) Responders (%)
[3]; NSCLC (CIT naïve), n=26
  ORR in all patients: 2 (8%) Responders (%)
[3]; NSCLC (relapsed), n=1
  ORR in IDO1 0 patients: 0 (0%) Responders (%)
[3]; NSCLC (relapsed), n=4
  ORR in PDL1 0 patients: 0 (0%) Responders (%)
[3]; NSCLC (relapsed), n=11
  ORR in PDL1 IHC 1/2/3 patients: 0 (0%) Responders (%)
[3]; NSCLC (relapsed), n=14
  ORR in IDO1 IHC 1/2/3 patients: 0 (0%) Responders (%)
[3]; NSCLC (relapsed), n=16
  ORR in all patients: 0 (0%) Responders (%)
[3]; RCC (CIT naïve), n=0
  ORR in IDO1 0 patients: 0 (0%) Responders (%)
  ORR in PDL1 0 patients: 0 (0%) Responders (%)
[3]; RCC (CIT naïve), n=7
  ORR in IDO1 IHC 1/2/3 patients: 3 (43%) Responders (%)
  ORR in PDL1 IHC 1/2/3 patients: 3 (43%) Responders (%)
  ORR in all patients: 3 (43%) Responders (%)
[3]; TNBC (CIT naïve), n=3
  ORR in IDO1 0 patients: 0 (0%) Responders (%)
  ORR in PDL1 0 patients: 0 (0%) Responders (%)
[3]; TNBC (CIT naïve), n=8
  ORR in IDO1 IHC 1/2/3 patients: 1 (12%) Responders (%)
  ORR in PDL1 IHC 1/2/3 patients: 1 (12%) Responders (%)
[3]; TNBC (CIT naïve), n=11
  ORR in all patients: 1 (9%) Responders (%)
[3]; UBC (CIT naïve), n=0
  ORR in IDO1 0 patients: 0 (0%) Responders (%)
  ORR in PDL1 0 patients: 0 (0%) Responders (%)
[3]; UBC (CIT naïve), n=6
  ORR in IDO1 IHC 1/2/3 patients: 2 (33%) Responders (%)
  ORR in PDL1 IHC 1/2/3 patients: 2 (33%) Responders (%)
[3]; UBC (CIT naïve), n=8
  ORR in all patients: 3 (38%) Responders (%)
Solid tumors; [5]
  Clinical activity as a single agent: limited clinical activity
  Tolerability as a single agent: generally well-tolerated
Solid tumors
  Hepatic adverse events, single agent: Hepatic adverse events had been reported
[4]
  MTD: not reached; also recorded: not identified; also recorded: No MTD was defined

## pembrolizumab
melanoma; pembrolizumab monotherapy
  mPFS: 4.9 mo.
